Calls of active or inactive are those of the source. The calls are words filed in the database; no cut-off is given here.
Experiments:
[1] = system: Salmonella typhimurium; test: Antibacterial activity against Salmonella typhimurium ATCC 23564 at 160 uM/ml after 24 hrs by kirby-bauer method; assay type: functional; conditions: Salmonella enterica subsp. enterica serovar Typhimurium
[2] = system: Escherichia coli; test: Antibacterial activity against Escherichia coli ATCC 35218 at 40 uM/ml after 24 hrs by kirby-bauer method; assay type: functional; conditions: ATCC 35218, 24 h, read-out: IZ
[3] = system: HCT-116
[4] = system: Trichoderma viride; test: Antifungal activity against Trichoderma viride MTCC 1107 at 160 uM/ml after 48 hrs by paper disc diffusion method; assay type: functional; conditions: MTCC 1107, 48 h, read-out: IZ
[5] = system: Trichoderma viride; test: Antifungal activity against Trichoderma viride MTCC 1107 at 20 uM/ml after 48 hrs by paper disc diffusion method; assay type: functional; conditions: MTCC 1107, 48 h, read-out: IZ
[6] = system: Staphylococcus aureus; test: Antibacterial activity against Staphylococcus aureus ATCC 11632 at 20 uM/ml after 24 hrs by kirby-bauer method; assay type: functional
[7] = system: Aspergillus flavus; test: Antifungal activity against Aspergillus flavus MTCC 1021 at 40 uM/ml after 48 hrs by paper disc diffusion method; assay type: functional; conditions: MTCC 1021, 48 h, read-out: IZ
[8] = system: Curvularia lunata; test: Antifungal activity against Curvularia lunata MTCC 581 at 160 uM/ml after 48 hrs by paper disc diffusion method; assay type: functional; conditions: MTCC 581, 48 h, read-out: IZ
[9] = system: Burkholderia pseudomallei; test: Antibacterial activity against Burkholderia pseudomallei NTCC 10274 at 20 uM/ml after 24 hrs by kirby-bauer method; assay type: functional; conditions: NTCC 10274, 24 h, read-out: IZ
[10] = system: Aspergillus niger; test: Antifungal activity against Aspergillus niger MTCC 1108 at 80 uM/ml after 48 hrs by paper disc diffusion method; assay type: functional; conditions: MTCC 1108, 48 h, read-out: IZ
[11] = system: Aspergillus niger; test: Antifungal activity against Aspergillus niger MTCC 1108 at 20 uM/ml after 48 hrs by paper disc diffusion method; assay type: functional
[12] = system: Pseudomonas aeruginosa; test: Antibacterial activity against Pseudomonas aeruginosa ATCC 15499 at 40 uM/ml after 24 hrs by kirby-bauer method; assay type: functional; conditions: ATCC 15499, 24 h, read-out: IZ
[13] = system: Curvularia lunata; test: Antifungal activity against Curvularia lunata MTCC 581 at 40 uM/ml after 48 hrs by paper disc diffusion method; assay type: functional; conditions: MTCC 581, 48 h, read-out: IZ
[14] = system: Pseudomonas aeruginosa; test: Antibacterial activity against Pseudomonas aeruginosa ATCC 15499 at 20 uM/ml after 24 hrs by kirby-bauer method; assay type: functional; conditions: ATCC 15499, 24 h, read-out: IZ
[15] = system: HepG2
[16] = system: Escherichia coli; test: Antibacterial activity against Escherichia coli ATCC 35218 at 160 uM/ml after 24 hrs by kirby-bauer method; assay type: functional; conditions: ATCC 35218, 24 h, read-out: IZ
[17] = system: Trichoderma viride; test: Antifungal activity against Trichoderma viride MTCC 1107 at 40 uM/ml after 48 hrs by paper disc diffusion method; assay type: functional; conditions: MTCC 1107, 48 h, read-out: IZ
[18] = system: Aspergillus flavus; test: Antifungal activity against Aspergillus flavus MTCC 1021 at 160 uM/ml after 48 hrs by paper disc diffusion method; assay type: functional; conditions: MTCC 1021, 48 h, read-out: IZ
[19] = system: Aspergillus niger; test: Antifungal activity against Aspergillus niger MTCC 1108 at 40 uM/ml after 48 hrs by paper disc diffusion method; assay type: functional; conditions: MTCC 1108, 48 h, read-out: IZ
[20] = system: Aspergillus flavus; test: Antifungal activity against Aspergillus flavus MTCC 1021 at 80 uM/ml after 48 hrs by paper disc diffusion method; assay type: functional; conditions: MTCC 1021, 48 h, read-out: IZ
[21] = system: Burkholderia pseudomallei; test: Antibacterial activity against Burkholderia pseudomallei NTCC 10274 at 80 uM/ml after 24 hrs by kirby-bauer method; assay type: functional; conditions: NTCC 10274, 24 h, read-out: IZ
[22] = system: Burkholderia pseudomallei; test: Antibacterial activity against Burkholderia pseudomallei NTCC 10274 at 160 uM/ml after 24 hrs by kirby-bauer method; assay type: functional; conditions: NTCC 10274, 24 h, read-out: IZ
[23] = system: Burkholderia pseudomallei; test: Antibacterial activity against Burkholderia pseudomallei NTCC 10274 at 40 uM/ml after 24 hrs by kirby-bauer method; assay type: functional; conditions: NTCC 10274, 24 h, read-out: IZ
[24] = system: Staphylococcus aureus; test: Antibacterial activity against Staphylococcus aureus ATCC 11632 at 80 uM/ml after 24 hrs by kirby-bauer method; assay type: functional; conditions: ATCC 11632, 24 h, read-out: IZ
[25] = system: Pseudomonas aeruginosa; test: Antibacterial activity against Pseudomonas aeruginosa ATCC 15499 at 160 uM/ml after 24 hrs by kirby-bauer method; assay type: functional; conditions: ATCC 15499, 24 h, read-out: IZ
[26] = system: Escherichia coli; test: Antibacterial activity against Escherichia coli ATCC 35218 at 20 uM/ml after 24 hrs by kirby-bauer method; assay type: functional; conditions: ATCC 35218, 24 h, read-out: IZ
[27] = system: Staphylococcus aureus; test: Antibacterial activity against Staphylococcus aureus ATCC 11632 at 160 uM/ml after 24 hrs by kirby-bauer method; assay type: functional; conditions: ATCC 11632, 24 h, read-out: IZ
[28] = system: QG-56; test: Cytotoxicity against human QG56 cells after 48 hrs by MTT assay; assay type: functional, cell-based
[29] = system: Aspergillus niger; test: Antifungal activity against Aspergillus niger MTCC 1108 at 160 uM/ml after 48 hrs by paper disc diffusion method; assay type: functional; conditions: MTCC 1108, 48 h, read-out: IZ
[30] = system: Aspergillus flavus; test: Antifungal activity against Aspergillus flavus MTCC 1021 at 20 uM/ml after 48 hrs by paper disc diffusion method; assay type: functional; conditions: MTCC 1021, 48 h, read-out: IZ
[31] = system: Escherichia coli; test: Antibacterial activity against Escherichia coli ATCC 35218 at 80 uM/ml after 24 hrs by kirby-bauer method; assay type: functional; conditions: ATCC 35218, 24 h, read-out: IZ
[32] = system: Pseudomonas aeruginosa; test: Antibacterial activity against Pseudomonas aeruginosa ATCC 15499 at 80 uM/ml after 24 hrs by kirby-bauer method; assay type: functional; conditions: ATCC 15499, 24 h, read-out: IZ
[33] = system: Curvularia lunata; test: Antifungal activity against Curvularia lunata MTCC 581 at 20 uM/ml after 48 hrs by paper disc diffusion method; assay type: functional; conditions: MTCC 581, 48 h, read-out: IZ
[34] = system: Curvularia lunata; test: Antifungal activity against Curvularia lunata MTCC 581 at 80 uM/ml after 48 hrs by paper disc diffusion method; assay type: functional; conditions: MTCC 581, 48 h, read-out: IZ
[35] = system: Staphylococcus aureus; test: Antibacterial activity against Staphylococcus aureus ATCC 11632 at 40 uM/ml after 24 hrs by kirby-bauer method; assay type: functional
[36] = system: Trichoderma viride; test: Antifungal activity against Trichoderma viride MTCC 1107 at 80 uM/ml after 48 hrs by paper disc diffusion method; assay type: functional; conditions: MTCC 1107, 48 h, read-out: IZ

For `COc1cc(/C=C/C(=O)C2=C(/C=C/c3ccc(O)c(OC)c3)NC(=S)NC2c2ccc(O)cc2)ccc1O` (stereo unspecified), the “inhibition zone (IZ)” value [1] was “inactive”, the zone of inhibition at 40 µM [2] was 17 mm and the IC50 [3] was 50 uM/ml. The zone of inhibition at 160 µM [4] was 20 mm, the zone of inhibition at 20 µM [5] was 11 mm and the “inhibition zone (IZ)” value [6] was “inactive”. It also gave a zone of inhibition at 40 µM [7] of 11 mm, a zone of inhibition at 160 µM [8] of 24 mm and a zone of inhibition at 20 µM [9] of 14 mm. For the same compound, the zone of inhibition at 80 µM [10] was 11 mm, the “inhibition zone (IZ)” value [11] was “inactive” and the zone of inhibition at 40 µM [12] was 12 mm. The zone of inhibition at 40 µM [13] was 21 mm, the zone of inhibition at 20 µM [14] was 9 mm and the IC50 [15] was 100 uM/ml. For the same compound, the zone of inhibition at 160 µM [16] was 22 mm, the zone of inhibition [17] was 14 mm and the zone of inhibition at 160 µM [18] was 15 mm. For the same compound, the zone of inhibition at 40 µM [19] was 9 mm, the zone of inhibition at 80 µM [20] was 13 mm and the zone of inhibition at 80 µM [21] was 17 mm. The zone of inhibition at 160 µM [22] was 19 mm, the zone of inhibition at 40 µM [23] was 16 mm and the zone of inhibition at 80 µM [24] was 10 mm. It also gave a zone of inhibition at 160 µM [25] of 18 mm, a zone of inhibition at 20 µM [26] of 13 mm and a zone of inhibition at 160 µM [27] of 12 mm. The IC50 [28] was 50 uM/ml, the zone of inhibition at 160 µM [29] was 14 mm and the zone of inhibition at 20 µM [30] was 9 mm. For the same compound, the zone of inhibition at 80 µM [31] was 18 mm, the zone of inhibition at 80 µM [32] was 14 mm and the zone of inhibition at 20 µM [33] was 20 mm. For the same compound, the zone of inhibition at 80 µM [34] was 22 mm, the “inhibition zone (IZ)” value [35] was “inactive” and the zone of inhibition at 80 µM [36] was 17 mm.

— ChEMBL document CHEMBL2016493, “Design, synthesis, synergistic antimicrobial activity and cytotoxicity of 4-aryl substituted 3,4-dihydropyrimidinones of curcumin” (Bioorg Med Chem Lett, 2012)
